Data on 23 compounds can be found in patent US9994587B2, “HIV protease inhibitors” (priority 2014, dated 2018).

SMILES strings stand for the structures.

The target in the assay is T1, wildtype HIV-1 protease (Human immunodeficiency virus type 1 group M subtype B, UniProt P04585).
T1 construct: preincubated with the HIV-1 protease (wild type) enzyme in assay buffer; made in house; host or cells: Escherichia coli
Description: Assay for inhibition of microbial expressed HIV protease (Pepcleav). The assay is classed as biochemical. The settings on record: wild type HIV-1 protease 20 pM, peptide substrate 400 micromolar, pH 5.5; mean of at least two independent experiments. Here is the method: Assay for Inhibition of Microbial Expressed HIV Protease (“Pepcleav”)
Studies of the inhibition of the wildtype HIV-1 protease (which was expressed in Escherichia coli) were carried out with a peptide substrate [Val-Ser-Gln-Asn-(βnaphtyl)Ala-Pro-Ile-Val (SEQ ID NO 1)]. The inhibitor was first preincubated with the HIV-1 protease (wild type) enzyme in assay buffer (50 mM sodium acetate, pH 5.5, 100 mM NaCl, and 0.1% BSA) for 30 minutes at room temperature. Substrate was added to 400 micromolar in a total volume of 20 microliters containing 20 picomolar HIV-1 protease (final) and the reaction is incubated for 1 hour at 30° C. The reaction was quenched with the addition of formic acid and indinavir to 0.012% and 150 nM final concentrations, respectively. Product formation was determined after separation of product and substrate on a Zorbax Eclipse XDB-C18 column connected to an API 4000 mass spectrometer (Applied Biosystems) with multiple reaction monitoring (transitions were 644.5/428.9 and 615.4/422.2 (M1/M3) for product and indinavir respectively). The extent of inhibition of the reaction was determined from the peak area of the products.
Turning to `COC(=O)N[C@H](C(=O)Nc1ccccc1CC[C@@H]1CNC[C@@H](COc2ccc(S(C)(=O)=O)cc2C)O1)C(c1ccccc1)c1ccccc1` [Example 28, methyl N-[(1S)-1-benzhydryl-2-[[2-[2-[(2R,6S)-6-[(2-methyl-4-methylsulfonyl-phenoxy)methyl]morpholin-2-yl]ethyl]phenyl]amino]-2-oxo-ethyl]carbamate], inhibition was half-maximal at 18 nM (IC50).

`COC(=O)N[C@H](C(=O)Nc1ccccc1CC[C@@H]1CNC[C@@H](COc2ccc(C#N)cc2)O1)C(c1ccccc1)c1ccccc1` [Example 17, methyl N-[(1S)-1-benzhydryl-2-[[2-[2-[(2R,6S)-6-[(4-cyanophenoxy)methyl]morpholin-2-yl]ethyl]phenyl]amino]-2-oxo-ethyl]carbamate] had an IC50 of 21 nM.

In turn, `COC(=O)N[C@H](C(=O)Nc1cncnc1CC[C@@H]1CNC[C@@H](COc2ccc(C#N)cc2)O1)C(c1ccccc1)c1ccccc1` [Example 79, N-[4-(2-{(2R,6S)-6-[(4-cyanophenoxy)methyl]morpholin-2-yl}ethyl)pyrimidin-5-yl]-Nα-(methoxycarbonyl)-β-phenyl-L-phenylalaninamide] displayed an IC50 of 120 nM. This IC50 lies about 5.7-fold higher than the previous one.

`COC(=O)N[C@H](C(=O)Nc1ccccc1CC[C@@H]1CNC[C@@H](CSc2nnc(Cc3csc(C)n3)o2)O1)C(c1ccccc1)c1ccccc1` [Example 32, methyl N-[(1S)-1-benzhydryl-2-[[2-[2-[(2R,6S)-6-[[5-[(2-methylthiazol-4-yl)methyl]-1,3,4-oxadiazol-2-yl]sulfanylmethyl]morpholin-2-yl]ethyl]phenyl]amino]-2-oxo-ethyl]carbamate] yielded an IC50 of 8 nM.

`COC(=O)N[C@H](C(=O)Nc1ccccc1CC[C@@H]1CNC[C@@H](COc2ccc(-n3ccnc3)cc2)O1)C(c1ccccc1)c1ccccc1` [Example 108, N-(2-{2-[(2R,6S)-6-{[4-(1H-imidazol-1-yl)phenoxy]methyl}morpholin-2-yl]ethyl}phenyl)-Nα-(methoxycarbonyl)-β-phenyl-L-phenylalaninamide]: the IC50 is 37 nM.

Consider `COC(=O)N[C@H](C(=O)Nc1ccccc1CC[C@@H]1CNC[C@@H](COc2ccc(Cc3ccccc3)cc2)O1)C(c1ccccc1)c1ccccc1` [Example 12, methyl N-[(1S)-1-benzhydryl-2-[[2-[2-[(2R,6S)-6-[(4-benzylphenoxy)methyl]morpholin-2-yl]ethyl]phenyl]amino]-2-oxo-ethyl]carbamate], for which the half-maximal inhibitory concentration (IC50) is 24 nM.

On to `C#C[C@@H]1CNC[C@@H](CCc2ccccc2NC(=O)[C@@H](NC(=O)OC)C(c2ccccc2)c2ccccc2)O1` [Example 111, N-(2-{2-[(2R,6R)-6-ethynylmorpholin-2-yl]ethyl}phenyl)-Nα-(methoxycarbonyl)-β-phenyl-L-phenylalaninamide], for which the IC50 worked out at 580 nM. Against the preceding compound, the IC50 is about 24-fold higher.

Take `N#Cc1cccc(SC[C@@H]2CNC[C@@H](CCc3c(F)cncc3NC(=O)[C@@H](N)C(c3ccc(F)cc3)c3ccc(F)cc3)O2)c1` [Example 102, N-(4-{2-[(2R,6S)-6-{[(3-cyanophenyl)sulfanyl]methyl}morpholin-2-yl]ethyl}-5-fluoropyridin-3-yl)-4-fluoro-β-(4-fluorophenyl)-L-phenylalaninamide]: the IC50 is 0.47 nM.

With `O=C(Nc1c(CC[C@@H]2CNC[C@@H](CSc3ccc(Cl)cc3)O2)cc[nH]c1=O)[C@@H](NCC(F)(F)F)C(c1ccccc1)c1ccccc1` [Example 89, N-(4-{2-[(2R,6S)-6-{[(4-chlorophenyl)sulfanyl]methyl}morpholin-2-yl]ethyl}-2-oxo-1,2-dihydropyridin-3-yl)-β-phenyl-Nα-(2,2,2-trifluoroethyl)-L-phenylalaninamide], the IC50 was determined as 12.3 nM.

Compound `COC(=O)N[C@H](C(=O)Nc1ccccc1CC[C@@H]1CNC[C@@H](COc2ccc(C#N)cc2C)O1)C(c1ccccc1)c1ccccc1` [Example 29, methyl N-[(1S)-1-benzhydryl-2-[[2-[2-[(2R,6S)-6-[(4-cyano-2-methyl-phenoxy)methyl]morpholin-2-yl]ethyl]phenyl]amino]-2-oxo-ethyl]carbamate] returned a concentration for half-maximal inhibition (IC50) of 17 nM.

`COC(=O)N[C@H](C(=O)Nc1ccccc1CC[C@@H]1CNC[C@@H](CSc2cccc(Cl)c2)O1)C(c1ccccc1)c1ccccc1` [Example 18, methyl N-[(1S)-1-benzhydryl-2-[[2-[2-[(2R,6S)-6-[(3-chlorophenyl)sulfanylmethyl]morpholin-2-yl]ethyl]phenyl]amino]-2-oxo-ethyl]carbamate]: the IC50 is 1.9 nM.

On to `COC(=O)N[C@H](C(=O)Nc1ccccc1CC[C@@H]1CNC[C@@H](CSc2nnc(-c3ccncc3)o2)O1)C(c1ccccc1)c1ccccc1` [Example 34, methyl N-[(1S)-1-benzhydryl-2-oxo-2-[[2-[2-[(2R,6S)-6-[[5-(4-pyridyl)-1,3,4-oxadiazol-2-yl]sulfanylmethyl]morpholin-2-yl]ethyl]phenyl]amino]ethyl] carbamate], for which the IC50 amounted to 0.42 nM.

`COC(=O)N[C@H](C(=O)Nc1ccccc1CC[C@H]1CNC[C@@H](CS(=O)(=O)c2ccc(Cl)cc2)O1)C(c1ccccc1)c1ccccc1` [Example 109, N-(2-{2-[(2S,6S)-6-{[(4-chlorophenyl)sulfonyl]methyl}morpholin-2-yl]ethyl}phenyl)-Nα-(methoxycarbonyl)-β-phenyl-L-phenylalaninamide]: the midpoint of inhibition, the IC50, lay at 770 nM. Against the preceding compound, the IC50 is about 1800-fold higher.

In turn, `COC(=O)N[C@H](C(=O)Nc1cc(F)cnc1CC[C@@H]1CNC[C@@H](COc2ccc(C#N)cc2)O1)C(c1ccccc1)c1ccccc1` [Example 78, N-[2-(2-{(2R,6S)-6-[(4-cyanophenoxy)methyl]morpholin-2-yl}ethyl)-5-fluoropyridin-3-yl]-Nα-(methoxycarbonyl)-β-phenyl-L-phenylalaninamide] displayed an IC50 of 150 nM.

Compound `COC(=O)N[C@H](C(=O)Nc1ccccc1CC[C@@H]1CNC[C@@H](/C=C/c2ccc(S(C)(=O)=O)cc2)O1)C(c1ccccc1)c1ccccc1` [Example 61, N-α-(methoxycarbonyl)-N-(2-{2-[(2R,6R)-6-{(E)-2-[4-(methylsulfonyl)phenyl]ethenyl}morpholin-2-yl]ethyl}phenyl)-β-phenyl-L-phenylalaninamide] registered an IC50 of 5.9 nM. This IC50 lies about 25-fold lower than the previous one.

For `COC(=O)N[C@H](C(=O)Nc1ccccc1CC[C@@H]1CNC[C@@H](COc2ccc(C(F)(F)F)cc2)O1)C(c1ccccc1)c1ccccc1` [Example 44, N-α-(methoxycarbonyl)-β-phenyl-N-(2-{2-[(2R,6S)-6-{[4-(trifluoromethyl)phenoxy]methyl}morpholin-2-yl]ethyl}phenyl)-L-phenylalaninamide], half-maximal inhibition (IC50) required 14 nM.

With `COC(=O)N[C@H](C(=O)Nc1ccccc1CC[C@@H]1CNC[C@@H](COc2cccnc2C)O1)C(c1ccccc1)c1ccccc1` [Example 50, N-α-(methoxycarbonyl)-N-(2-{2-[(2R,6S)-6-{[(2-methylpyridin-3-yl)oxy]methyl}morpholin-2-yl]ethyl}phenyl)-β-phenyl-L-phenylalaninamide], 130 nM corresponded to half-maximal inhibition (IC50). Compared with the last compound, the IC50 is about 9.3-fold higher.

Regarding `COC(=O)N[C@H](C(=O)Nc1ccccc1CC[C@@H]1CNC[C@@H](C[S+]([O-])c2ccc(Cl)cc2)O1)C(c1ccccc1)c1ccccc1` (stereo partly drawn) [Example 57, methyl N-[(1S)-1-benzhydryl-2-[[2-[2-[(2R,6S)-6-[(4-chlorophenyl)sulfinylmethyl]morpholin-2-yl]ethyl]phenyl]amino]-2-oxo-ethyl]carbamate], it took 280 nM to reach half-maximal inhibition (IC50).

`COC(=O)N[C@H](C(=O)Nc1ncccc1CC[C@@H]1CNC[C@@H](COc2ccc(C#N)cc2)O1)C(c1ccccc1)c1ccccc1` [Example 85, N-[3-(2-{(2R,6S)-6-[(4-cyanophenoxy)methyl]morpholin-2-yl}ethyl)pyridin-2-yl]-Nα-(methoxycarbonyl)-β-phenyl-L-phenylalaninamide] yielded an IC50 of 88 nM.

In turn, `COC(=O)N[C@H](C(=O)Nc1ccccc1CC[C@@H]1CNC[C@@H](CSc2ncccc2Cl)O1)C(c1ccccc1)c1ccccc1` [Example 54, N-(2-{2-[(2R,6S)-6-{[(3-chloropyridin-2-yl)sulfanyl]methyl}morpholin-2-yl]ethyl}phenyl)-Nα-(methoxycarbonyl)-β-phenyl-L-phenylalaninamide] displayed an IC50 of 0.93 nM.

For `COC(=O)N[C@H](C(=O)Nc1ccccc1CC[C@@H]1CNC[C@@H](CSc2ccc(Cl)cc2)O1)[C@@H](c1ccccc1)c1cccnc1` [Example 66, (βS)—N-(2-{2-[(2R,6S)-6-{[(4-chlorophenyl)sulfanyl]methyl}morpholin-2-yl]ethyl}phenyl)-Nα-(methoxycarbonyl)-β-pyridin-3-yl-L-phenylalaninamide], the IC50 was found to be 0.2 nM.

Turning to `COC(=O)N[C@H](C(=O)Nc1ccccc1CC[C@@H]1CNC[C@@H](COc2ccc3c(c2)NCCC3)O1)C(c1ccccc1)c1ccccc1` [Example 53, methyl [(2S)-1-oxo-3,3-diphenyl-1-{[2-(2-{(2R,6S)-6-[(1,2,3,4-tetrahydroquinolin-7-yloxy)methyl]morpholin-2-yl}ethyl)phenyl]amino}propan-2-yl]carbamate], the IC50 turned out to be 13 nM.

`COC(=O)N[C@H](C(=O)Nc1ccccc1CC[C@@H]1CNC[C@@H](CCc2ccc(C#N)cc2)O1)C(c1ccccc1)c1ccccc1` [Example 63, N-[2-(2-{(2R,6R)-6-[2-(4-cyanophenyl)ethyl]morpholin-2-yl}ethyl)phenyl]-N-α-(methoxycarbonyl)-β-phenyl-L-phenylalaninamide] displayed a 50% inhibitory concentration (IC50) of 8.8 nM. The IC50 values of the last two compounds are within 1.5-fold of each other.

A word on the IC50: it is the concentration needed to halve the response being measured. A low value points to greater potency in that assay.
